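Protocol summary: plate cells (96-well), add compound at 5 concentrations, incubate 48 h, interpolate endpoints linearly. Here, GI50 denotes the concentration required for 50% inhibition of growth.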 The source made the active and inactive calls. Rule as the data show it: active = GI50 up to about 1.1 µM and inactive = higher.
Assays:
Assay in all cases: NCI-60 cell line screen, 48 h
NCI-H23 = tested on: NCI-H23
SF-268 = tested on: SF-268
K562 = tested on: K562
SW-620 = tested on: SW-620
UO-31 = tested on: UO-31
IGROV-1 = tested on: IGROV-1
HCT-15 = tested on: HCT-15
HOP-92 = tested on: HOP-92
SNB-19 = tested on: SNB-19
HOP-62 = tested on: HOP-62
UACC-62 = tested on: UACC-62
HT-29 = tested on: HT-29
BT-549 = tested on: BT-549
CAKI-1 = tested on: CAKI-1
U-251 = tested on: U-251
EKVX = tested on: EKVX
OVCAR-8 = tested on: OVCAR-8
A549 = tested on: A549
NCI-H522 = tested on: NCI-H522
Hs-578T = tested on: Hs-578T
786-0 = tested on: 786-0
NCI-H460 = tested on: NCI-H460
SN12C = tested on: SN12C
MCF7 = tested on: MCF7
SNB-75 = tested on: SNB-75
HL-60 = tested on: HL-60
SK-MEL-28 = tested on: SK-MEL-28
RPMI-8226 = tested on: RPMI-8226
SK-OV-3 = tested on: SK-OV-3
NCI/ADR-RES = tested on: NCI/ADR-RES
UACC-257 = tested on: UACC-257
PC-3 = tested on: PC-3
M14 = tested on: M14
LOX IMVI = tested on: LOX IMVI
HCC 2998 = tested on: HCC 2998
MOLT-4 = tested on: MOLT-4
TK-10 = tested on: TK-10
SR = tested on: SR
COLO 205 = tested on: COLO 205
RXF 393 = tested on: RXF 393
A498 = tested on: A498
SK-MEL-5 = tested on: SK-MEL-5
DU-145 = tested on: DU-145
Malme-3M = tested on: Malme-3M
SF-539 = tested on: SF-539
OVCAR-3 = tested on: OVCAR-3
CCRF-CEM = tested on: CCRF-CEM
MDA-MB-435 = tested on: MDA-MB-435
SF-295 = tested on: SF-295
OVCAR-5 = tested on: OVCAR-5
MDA-N = tested on: MDA-N
OVCAR-4 = tested on: OVCAR-4
T47D = tested on: T47D
SK-MEL-2 = tested on: SK-MEL-2
HCT-116 = tested on: HCT-116
KM12 = tested on: KM12
ACHN = tested on: ACHN
NCI-H226 = tested on: NCI-H226
MDA-MB-231 = tested on: MDA-MB-231

Measured: GI50

O=c1cc(-c2ccccc2)oc2c1ccc1nc3ccccc3c(O)c12
42.3 µM: HCT-15
inactive: NCI-H23 89.1 µM | SF-268 39.8 µM | K562 > 100 µM | SW-620 > 100 µM | UO-31 80.2 µM | IGROV-1 > 100 µM | HOP-92 > 100 µM | SNB-19 > 100 µM | HOP-62 88.1 µM | UACC-62 67.1 µM | HT-29 > 100 µM | BT-549 33.5 µM | CAKI-1 60.7 µM | U-251 57.3 µM | EKVX > 100 µM | OVCAR-8 80.5 µM | A549 45.1 µM | NCI-H522 39.9 µM | Hs-578T 59.4 µM | 786-0 42 µM | NCI-H460 14.7 µM | SN12C 66.1 µM | MCF7 36.4 µM | SNB-75 34.9 µM | HL-60 59.7 µM | SK-MEL-28 > 100 µM | RPMI-8226 51.1 µM | SK-OV-3 43.7 µM | NCI/ADR-RES 42.4 µM | UACC-257 > 100 µM | PC-3 > 100 µM | M14 > 100 µM | LOX IMVI 12.5 µM | HCC 2998 62.8 µM | MOLT-4 57.4 µM | TK-10 60.1 µM | SR 40.7 µM | COLO 205 > 100 µM | RXF 393 31.6 µM | A498 27.5 µM | SK-MEL-5 47.6 µM | DU-145 61.2 µM | Malme-3M > 100 µM | SF-539 33 µM | OVCAR-3 79.1 µM | CCRF-CEM 54.6 µM | MDA-MB-435 > 100 µM | SF-295 49.4 µM | OVCAR-5 > 100 µM | MDA-N > 100 µM | OVCAR-4 34.8 µM | T47D 40.8 µM | SK-MEL-2 > 100 µM | HCT-116 26.4 µM | KM12 16.7 µM | ACHN 43.5 µM | NCI-H226 > 100 µM | MDA-MB-231 > 100 µM

Cc1ccc2c(c1)nc1n2C(N)=Nc2ccccc2S1
24.2 µM: HCT-15
inactive: NCI-H23 28.7 µM | SF-268 48.1 µM | K562 5.79 µM | SW-620 40 µM | UO-31 50.4 µM | IGROV-1 6.4 µM | HOP-92 > 40.6 µM | SNB-19 35.8 µM | HOP-62 > 83.4 µM | UACC-62 > 60.8 µM | HT-29 15.8 µM | BT-549 > 100 µM | CAKI-1 > 100 µM | U-251 > 27.9 µM | EKVX 36.4 µM | OVCAR-8 25.5 µM | A549 25.4 µM | NCI-H522 > 63.2 µM | Hs-578T > 73.5 µM | 786-0 52.7 µM | NCI-H460 5.92 µM | SN12C > 92.7 µM | MCF7 > 27.2 µM | SNB-75 > 54.6 µM | HL-60 2.67 µM | SK-MEL-28 > 100 µM | RPMI-8226 19.6 µM | SK-OV-3 > 100 µM | NCI/ADR-RES 43.4 µM | UACC-257 > 67.5 µM | PC-3 75 µM | M14 3.44 µM | LOX IMVI 3.51 µM | HCC 2998 51.3 µM | MOLT-4 4.66 µM | TK-10 > 100 µM | SR 4.7 µM | COLO 205 14.8 µM | RXF 393 > 100 µM | A498 49.1 µM | SK-MEL-5 28.2 µM | DU-145 > 69.8 µM | Malme-3M > 100 µM | SF-539 > 95.5 µM | OVCAR-3 43.3 µM | CCRF-CEM 2.65 µM | MDA-MB-435 71.1 µM | SF-295 47.6 µM | OVCAR-5 > 75.7 µM | MDA-N 5.78 µM | OVCAR-4 > 100 µM | T47D 46.6 µM | SK-MEL-2 > 100 µM | HCT-116 4.4 µM | KM12 43.8 µM | ACHN 59.7 µM | NCI-H226 30.3 µM | MDA-MB-231 > 21 µM

From ChEMBL document CHEMBL1201862, “PubChem BioAssay data set” (2004)
